Source: US20220251096A1, “7,8-DIHYDRO-4H-PYRAZOLO[4,3-c]AZEPINE-6-ONE COMPOUNDS” (Eli Lilly and Company, priority 2019, published 2022)
Blank lines part the entries; values can stand above or below the compound they belong to.

Tests used:
[1] = tested on: 22Rv1 prostate cancer cells; assay: Cell proliferation assay in 22Rv1; type: cell-based; settings: Homo sapiens, 22Rv1, 168 h, 22Rv1, 7 days; for inhibition at 0.37 µM: single agent at 370 nM
Description: The purpose of the following cell proliferation assay is to detect whether the compound of Example 2 and combinations thereof have an effect on cell proliferation.
22Rv1 (purchased from ATCC CRL-2505) cells are seeded at a density of 1,000 cells per well in RMPI 10% FBS (20 μL volume) into a clear bottom 384-well cell culture plate. The plate is incubated at 37° C. and 5% CO2. The cells are dosed the following day with the compound of Example 2 and the compound of Example 2 in combination with the known anti-cancer therapeutics found in the table below. An Echo 555 acoustic dispenser is used to prepare serial dilutions (1:3) of the compound of Example 2, and combinations thereof, in concentrations ranging from 60 μM to 0.003 μM. The cells are then dosed by addition of 5 μL from the serial dilution plate to the cell plate, producing a final DMSO concentration of 0.2% with a final concentration dose ranging from 20 μM to 0.001 μM for the compound of Example 2 and combinations thereof.
Media containing 0.2% DMSO is used for the maximum point and 2 μM staurosporine in the growth media containing 0.2% DMSO is used for the minimum point. After dosing with the compound of Example 2 and combinations thereof, the cell plates are incubated at 37° C. and 5% CO2. Seven days after test compound addition, plates are removed from the incubator and cold EtOH (96%, 65 μL) is added to each well. After 30 minutes, the media is removed and RNase (20 μL, 50 μg/mL) (Sigma) and a 1:1000 propidium iodide dilution in PBS are added to each well. The plates are sealed and incubated for 1 hour at room temperature and preserved from light. Plates are then scanned with ACUMEN EXPLORER™ [Laser-scanning fluorescence microplate cytometer manufactured by TTP LABTECH LTD]. The number of 22Rv1 cells is evaluated through an estimated number of cells, calculated through the area parameter (ratio of total area of the total cells population), a designated range of peak intensity of FL-3 (PI), and the mean area of the single cell population defined by perimeter. Data is then processed through an NGR screening tool. Data is analyzed using a 4-parameter nonlinear logistic equation (four-parameter logistic concentration-response curve): Y=bot+[(top−bot)/1+(x/IC50)slope] where Y=% inhibition, X=concentration yielding y % inhibition, “bot”=minimum value of y attained by curve, “top”=maximum value of y attained by curve, and “slope”=steepness of curve at IC50. % Inh=[(median Max−x/median Max−median Min)]·100.

MDA-MIB-453 = assay: Cell growth inhibition assay, MDA-MIB-453; type: cell-based; settings: 168 h; MDA-MIB-453, 7 days
Description: (§1) Tumor cell lines are plated onto 96-well, black wall poly-D-lysine plates (Corning #354640), and incubated at 37° C., 5% CO2 for 18-24 hours. Compound was added at 1:3 dilutions in DMSO and cells were incubated at 37° C., 5% CO2 for 7 days. For adherent cell lines, cells were fixed and stained with propidium iodide and scanned on Acumen (channel 3 setting). For suspension cell lines, cell growth was monitored using Cell Titer-Glo reagent.

BRD4 (BD1, BD2) = target: T1, BRD4 (BD1, BD2) (Homo sapiens, UniProt O60885); assay: BromoKdELECT platform assay, BRD4 (BD1, BD2); type: binding; settings: 11 points dose-response, mean from a duplicate experiment
T1 construct: BRD4 (Bromodomain 1 (BD1) and Bromodomain 2 (BD2)); purchased DiscoverX (BromoKdELECT service)
Excerpt: (§2) The purpose of this assay is to evaluate the in vitro target engagement and selectivity (https://www.discoverx.com/services/drug-discovery-development-services/epigenetic-profiling/bromoscan-epigenetic-profiling/bromokdelect). Assay measurement is based on the amount of bromodomain captured in test and control samples by using quantitative PCR technology that detects the DNA label associated to bromodomain. Compounds that bind the bromodomain active site prevents its binding to the immobilized ligand and will reduce the amount of bromodomain captured on the solid support. […] Thus, compound activity is monitored by measuring the amount of bromodomain captured in test versus control samples by using qPCR. Binding affinity for test compound-bromodomain interactions are calculated by measuring the amount of bromodomain captured on the solid support as a function of the test compound concentration.
(§3) Binding affinity (Kd) of the compounds of Examples 1 and 2 towards CREBBP, EP300 and BRD4 (Bromodomain 1 (BD1) and Bromodomain 2 (BD2)) are determined in an 11 points dose-response study (See Table 5). Data is represented as a mean from a duplicate experiment.

SW780 = assay: Cell growth inhibition assay, SW780; type: cell-based; settings: Homo sapiens, 168 h; SW780, 7 days
Description: as §1

BRD4 (BD1) = target: T2, BRD4 (BD1) (Homo sapiens, UniProt O60885); assay: BromoKdELECT platform assay, BRD4 (BD1); type: binding; settings: 11 points dose-response, mean from a duplicate experiment
T2 construct: BRD4 (Bromodomain 1 (BD1) and Bromodomain 2 (BD2)); purchased DiscoverX (BromoKdELECT service)
Excerpt: as §2, §3

hBRD4 = target: T3, hBRD4 (Homo sapiens, UniProt O60885); assay: NanoBRET assay, BRD4 full length; type: cell-based; settings: NanoBRET in HEK293 cells, read after overnight incubation; mean ± Standard Deviation
T3 construct: NanLuc-BRD4 Full Length (Promega, 0.0002 μg); host or cells: HEK293
Description: (§4) HEK293 cells are seeded at 10×10^6 cells/16 mL in DMEM+10% FBS in a T-75 flask and left to attach for 4-6 hours. Transfection reagents are diluted in Opti-MEM media (no phenol red, no FBS) and 8% Fugene HD containing expression plasmids at a final concentration of the following: 1: Histone H3.3 HaloTag DNA (Promega, 0.02 μg)+NanoLuc-CREBBP-BD (Promega, 0.0002 μg); 2: Histone H3.3 HaloTag DNA (Promega, 0.02 μg)+NanoLuc-EP300-BD (Promega, 0.0002 μg); 3: Histone H4 HaloTag DNA (0.02 μg)+NanLuc-BRD4 Full Length (Promega, 0.0002 μg). The DNA/Fugene mixtures are left at RT for 10 minutes. Transfection mix (800 μL) is added per flask and immediately swirled to cover the cells. The plates are returned to the incubator for overnight transfection. The next day, HaloTag NanoBRET 618 ligand (20 μL/vial of 0.1 mM) is thawed at RT. […]
(§5) Compound is serially diluted and added to 96-well plates (2 10 mM, 3-fold dilutions, 100% DMSO). […] CREBBP/EP300 plates are read after 4 hours incubation and the BRD4 plates are read after overnight incubation. To develop plates for reading, allow all reagents to reach RT before use. […] The plate is shaken for 1 minute to mix and within 10 minutes, read on Envision plate reader with the following settings: Mirror: Luminescence; Emission filter: E600LP; 2nd emission filter: D460/50; Measurement height (mm): 6.5; Measurement time (s): 0.2 second.

EP300 [2] = target: T4, EP300 (Homo sapiens, UniProt Q09472); assay: BromoKdELECT platform assay, EP300; type: binding; design: purchased DiscoverX (BromoKdELECT service); settings: 11 points dose-response, mean from a duplicate experiment
T4 sequence (Q09472 1049-1156 limits assumed): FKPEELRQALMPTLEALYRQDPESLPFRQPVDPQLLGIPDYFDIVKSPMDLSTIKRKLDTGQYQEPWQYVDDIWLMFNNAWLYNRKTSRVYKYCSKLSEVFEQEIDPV
Excerpt: as §2, §3

EOL-1 = assay: Cell growth inhibition assay, EOL-1; type: cell-based; settings: Homo sapiens, EOL1, 168 h; EOL-1, 7 days
Description: as §1

NCI-H211 = assay: Cell growth inhibition assay, NCI-H211; type: cell-based; settings: Homo sapiens, 168 h; NCI-H211, 7 days
Description: as §1

NCI-H1048 = assay: Cell growth inhibition assay, NCI-H1048; type: cell-based; settings: Homo sapiens, 168 h; NCI-H1048, 7 days
Description: as §1

KG-1a = assay: Cell growth inhibition assay, KG-1a; type: cell-based; settings: Homo sapiens, 168 h, 7 days
Description: as §1

BRD4 (BD2) = target: T5, BRD4 (BD2) (Homo sapiens, UniProt O60885); assay: BromoKdELECT platform assay, BRD4 (BD2); type: binding; settings: 11 points dose-response, mean from a duplicate experiment
T5 construct: BRD4 (Bromodomain 1 (BD1) and Bromodomain 2 (BD2)); purchased DiscoverX (BromoKdELECT service)
Excerpt: as §2, §3

CREBBP [3] = target: T6, CREBBP (Homo sapiens, UniProt Q92793); assay: BromoKdELECT platform assay, CREBBP; type: binding; design: purchased DiscoverX (BromoKdELECT service); settings: 11 points dose-response, mean from a duplicate experiment
T6 sequence (Q92793 1085-1192 limits assumed): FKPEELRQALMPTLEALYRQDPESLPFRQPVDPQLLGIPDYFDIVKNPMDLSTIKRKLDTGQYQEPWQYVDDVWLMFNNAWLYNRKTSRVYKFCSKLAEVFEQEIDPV
Excerpt: as §2, §3

EP300 [4] = target: T4, EP300; assay: NanoBRET assay, EP300 bromodomain; type: cell-based; design: NanoLuc-EP300-BD (Promega, 0.0002 μg); host or cells: HEK293; settings: NanoBRET in HEK293 cells, read after 4 hours incubation; mean ± Standard Deviation
Description: as §4, §5

CREBBP [5] = target: T6, CREBBP; assay: NanoBRET assay, CREBBP bromodomain; type: cell-based; design: NanoLuc-CREBBP-BD (Promega, 0.0002 μg); host or cells: HEK293; settings: NanoBRET in HEK293 cells, read after 4 hours incubation; mean ± Standard Deviation
Description: as §4, §5

SMILES: CCN1CCN(Cc2ccc(Nc3ncc(F)c(-c4cc(F)c5nc(C)n(C(C)C)c5c4)n3)nc2)CC1 [Abemaciclib, abemaciclib, reference compound]
inhibition at 0.012 µM ([1]; single agent at 12 nM): 34.3%
inhibition at 0.037 µM ([1]; single agent at 37 nM): 62.4%

SMILES: Cc1nc(NC(=O)N2CCC[C@H]2C(N)=O)sc1-c1ccnc(C(C)(C)C(F)(F)F)c1 [Alpelisib, alpelisib, reference compound]
inhibition at 0.12 µM ([1]; single agent at 120 nM): 33.1%
inhibition at 0.37 µM [1]: 45.3%

SMILES: CC(O)c1cc(C(=O)N[C@@H](C)Cn2ccc(-c3ccc(C#N)c(Cl)c3)n2)[nH]n1 (stereo partly shown) [Darolutamide, darolutamide, reference compound]
inhibition at 0.74 µM ([1]; single agent at 740 nM): 6.69%
inhibition at 2.2 µM ([1]; single agent at 2.2 μM): 6.18%

SMILES: CNC(=O)c1ccc(N2C(=S)N(c3ccc(C#N)c(C(F)(F)F)c3)C(=O)C2(C)C)cc1F [Enzalutamide, enzalutamide, reference compound]
inhibition at 0.37 µM [1]: -0.12%
inhibition at 3.3 µM ([1]; single agent at 3.3 μM): 0.41%

Kd (BRD4 (BD1, BD2)): 4400 nM
IC50 (SW780): 1 nM
Kd (BRD4 (BD1)): 2000 nM
IC50 (hBRD4): 5570 ± 4100 nM
Kd (EP300 [2]): 0.16 nM
IC50 (NCI-H211): 36 nM
IC50 (NCI-H1048): 10 nM
Kd (BRD4 (BD2)): 6700 nM
Kd (CREBBP [3]): 1.1 nM
IC50 (EP300 [4]): 15.1 ± 2.75 nM
IC50 (CREBBP [5]): 16 ± 6.64 nM
SMILES: CNC(=O)c1ccc(-c2cc3cccc(-c4nn(C)c5c4CN(C)C(=O)CC5)c3cn2)cn1 [Example 1, 5-[8-(1,5-Dimethyl-6-oxo-7,8-dihydro-4H-pyrazolo[4,3-c]azepin-3-yl)-3-isoquinolyl]-N-methyl-pyridine-2-carboxamide]
IC50 (MDA-MIB-453): 28 nM
IC50 (EOL-1): 0.8 nM
IC50 (KG-1a): 37 nM
